Experimental data reported in publication doi:10.1101/2021.12.13.472376v1 (bioRxiv, 2021).

Columns and labels:
[1] = Water solubility / dissolution of the peptide; assay type: physicochemical
GBM = GBM patients treated with radiotherapy combined with TMZ; ref Stupp et al., 2005; cited from earlier work

| Compound | water solubility [1] | dissolution of 1 mg peptide in 1000 μL 10% DMSO DPBS ([1]; 1 mg in 1000 μL 10% DMSO DPBS, only a mixture with loose precipitation obtained) | median survival (GBM) [months] | dissolution of 1 mg peptide in 200 μL normal saline or DPBS ([1]; 1 mg in 200 μL normal saline or DPBS) |
| --- | --- | --- | --- | --- |
| RQIKIWFQNRRMKWGGTALDWSWLQTE [NBD] | poor | could not completely dissolve | – | – |
| Cn1nnc2c(C(N)=O)ncn2c1=O [TMZ] | – | – | 14.6 | – |
| YLGASVPSPDPLEPTGGTALDWSWLQTE [MTL-NBD] | good | – | – | completely dissolve |
